Three compounds from US11564909B2, “Methods and compositions for oral pilocarpine liquid” (ROMEG Therapeutics LLC, priority 2020, dated 2023) can be followed below.

A short description of one data set: in vitro. Conditions: human, Caco-2. As for the experimental part:
(§1) The objective of this study was to evaluate the bidirectional Caco-2 permeability of three formulations of test article Pilocarpine at three pH levels (pH 5.7, 6.5, 7.4) using calibration curve quantitation.
(§2) Samples were analyzed by LC/MS/MS using an Waters Xevo TQ mass spectrometer coupled with an Acuity HPLC and a CTC PAL chilled autosampler, all controlled by MassLynx software (Waters). After separation on a C18 reverse phase (Waters Acquity HSS T3 2.1×50 mm […]) using an acetonitrile-water gradient system, peaks were analyzed by mass spectrometry (MS) using ESI ionization in MRM mode.
(§3) Tables 16-17 show the HPLC gradients used and the experiment conditions of the Caco-2 permeability test, respectively.
(§4) Caco-2 cells grown in tissue culture flasks were trypsinized, suspended in medium, and the suspensions were applied to wells of a Millipore 96 well plate. The cells were allowed to grow and differentiate for three weeks, feeding at 2-day intervals.
(§5) For Apical to Basolateral (A→B) permeability, the test article was added to the apical (A) side and amount of permeation was determined on the basolateral (B) side; for Basolateral to Apical (B→A) permeability, the test article was added to the B side and the amount of permeation was determined on the A side. […] Caco-2 cells were incubated with test articles in these buffers for 2 hours, and at the end of the assay, donor and receiver side solution samples were collected, quenched by 100% methanol containing an internal standard and centrifuged at 5000 rpm for 10 minutes at 4° C. Following centrifugation, the supernatant for donor and receiver side samples were analyzed by LC-MS/MS.
(§6) Data is expressed as permeability (Papp):
(§7) [formula] dQ/dt is rate of permeation, C0 is initial concentration of test article, and A is the area of monolayer.
(§8) In bidirectional permeability studies, Efflux Ratio (Re) is also calculated:
(§9) [formula] Re>2 indicates a potential substrate for P-gp or other active efflux transporters. The donor, dosing and receiver side sample concentrations were calculated based on the calibration curve prepared in buffer matrix in the range of 1-20,000 nM.

The subject of a further data set is Caco-2 cells. Put plainly: in vitro. On the procedure:
as §1, §2, §3, §4, §5, §6, §7, §8, §9

The structures appear in SMILES notation.

Regarding `COCCc1ccc(OCC(O)CNC(C)C)cc1` (stereo not drawn) [Metoprolol], in the data set “in vitro”, the Papp A→B at 2 h, 10 μM is 19.4 ×10⁻⁶ cm/s; the apparent permeability from basolateral to apical (Papp B→A) at 2 h, 10 μM worked out at 42.7 ×10⁻⁶ cm/s; the efflux ratio at 2 h, 10 μM is 2.22. Moreover, the “Comments (permeability class)” value in the data set with Caco-2 cells is on record as “High permeability”.

In the case of `CNC(=C[N+](=O)[O-])NCCSCc1ccc(CN(C)C)o1` [Ranitidine], in “in vitro”, the Papp A→B at 2 h, 10 μM stood at 0.585 ×10⁻⁶ cm/s; the Papp B→A at 2 h, 10 μM worked out at 3.13 ×10⁻⁶ cm/s; the efflux ratio at 2 h, 10 μM turned out to be 5.41. For the same compound, the “Comments (permeability class)” value with Caco-2 cells is listed as “Low permeability”.

For the compound `CC[C@@H]1C(=O)OC[C@@H]1Cc1cncn1C` [pilocarpine, (3S,4R)-3-Ethyl-4-((1-methyl-1H-imidazol-5-yl)methyl)dihydrofuran-2(3H)-one], the BCS permeability classification entry in the data set on Caco-2 cells was “high permeability”.
